The source of these data is US4548946A, “Antiinflammatory and/or analgesic 1,8-Dihydro-(or 3,8-dihydro)-8-aryl-2-[(substituted)thio]-indeno[1,2-d]imidazoles and their corresponding sulfoxides and sulfones” (E. I. Du Pont de Nemours and Company, priority 1982, dated 1985).

Read-outs that look alike come from different tables or passages of the source.

In assay [1] the test system is writhing induced by phenylquinone. The assay is described as follows: Phenylquinone writhing test (analgesic activity). In kind it is in vivo, female white mice. Conditions: read-out: Phenylquinone Writhing ED50. On the procedure:
PHENYLQUINONE WRITHING TEST
A test compound suspended in 1% methylcellulose was given orally to fasted (17-21 hours) female white mice, 5-20 animals per double blind test. Aqueous (0.01% phenyl-p-benzoquinone)phenylquinone, 0.20 ml per mouse, was injected intraperitoneally 6 minutes before observations were begun.
On the technique in general: Writhing tests count abdominal constrictions after an irritant is injected.

The subject of assay [2] is adjuvant-induced arthritis. The assay is described as follows: Established adjuvant-induced arthritis in rats (paw volume). The format is in vivo, Charles River Lewis male rats. Conditions: for ED50: read-out: Adjuvant Arthritic ED50; for Paw volume reduction at indicated daily dose (Adjuvant Arthritic): oral, daily dose 9 (mg/kg), 7 days, printed in the ED50 column, footnote 1.

[3] abbreviates: mouse, oral, fasted 17-21 hours, effective analgesic dose for 50% of the mice.
Setting [4] is: rat, oral gavage daily for 7 days, ED50% decrease from control paw volume, uninjected left hind paw, one day after last dose.

For the compound `CC(=O)Oc1ccccc1C(=O)O` [Aspirin, reference compound], the ED50 in assay [1] (Mus musculus, po) was determined as 135 mg/kg; in assay [2] (Rattus norvegicus, po), 305 mg/kg.
Take `FC(F)C(F)(F)Sc1nc2c([nH]1)C(c1ccccc1)c1ccccc1-2` (stereo not drawn) [Example 1, 1,8-Dihydro(or 3,8-dihydro)-2-[(1,1,2,2-tetrafluoroethyl)thio]-8-phenyl-indeno[1,2-d]imidazole]: the ED50 in assay [1] (setting [3]) is 0.16 mg/kg; in assay [2] (setting [4]), 0.79 mg/kg.
On to `O=S(=O)(c1nc2c([nH]1)C(c1ccccc1)c1ccccc1-2)C(F)(F)C(F)F` (stereo not drawn) [Example 2, 1,8-Dihydro(or 3,8-dihydro)-2-[(1,1,2,2-tetrafluoroethyl)sulfonyl]-8-phenyl-indeno[1,2-d]imidazole], for which the ED50 in assay [1] (setting [3]) came to 0.04 mg/kg; in assay [2] (setting [4]), 0.2 mg/kg.
The matching figures for `FC(F)(F)Sc1nc2c([nH]1)C(c1ccccc1)c1ccccc1-2` (stereo not drawn) [Example 3, 1,8-Dihydro(or 3,8-dihydro)-2-[(trifluoromethyl)thio]-8-phenyl-indeno[1,2-d]imidazole]: 0.26 mg/kg and 1.1 mg/kg.
For `O=S(=O)(c1nc2c([nH]1)C(c1ccccc1)c1ccccc1-2)C(F)(F)F` (stereo not drawn) [Example 4, 1,8-Dihydro(or 3,8-dihydro)-2-[(trifluoromethyl)sulfonyl]-8-phenyl-indeno[1,2-d]imidazole], in that order: 0.04 mg/kg and 1.35 mg/kg.
For `[O-][S+](c1nc2c([nH]1)C(c1ccccc1)c1ccccc1-2)C(F)(F)F` (stereo not drawn) [Example 5, 1,8-Dihydro(or 3,8-dihydro)-2-[(trifluoromethyl)sulfinyl]-8-phenyl-indeno[1,2-d]imidazole], in that order: 0.057 mg/kg and 0.62 mg/kg.
Consider `CSc1nc2c([nH]1)C(c1ccccc1)c1ccccc1-2` (stereo not drawn) [Example 6, 1,8-Dihydro(or 3,8-dihydro)-2-(methylthio)-8-phenyl-indeno[1,2-d]imidazole], for which the values for the ED50 in assay [1] (setting [3]) and in assay [2] (setting [4]) were 27 mg/kg and 50 mg/kg, respectively.
For `CS(=O)(=O)c1nc2c([nH]1)C(c1ccccc1)c1ccccc1-2` (stereo not drawn) [Example 7, 1,8-Dihydro(or 3,8-dihydro)-2-(methylsulfonyl)-8-phenyl-indeno[1,2]-dimidazole], in that order: 14 mg/kg and 19 mg/kg.
Turning to `COc1ccc2c(c1)C(c1ccccc1)c1[nH]c(SC(F)(F)F)nc1-2` (stereo not drawn) [Example 8], the figures for the ED50 in assay [1] (setting [3]) and in assay [2] (setting [4]) were 2.4 mg/kg and 10.5 mg/kg, respectively.
For `COc1cccc2c1-c1nc(SC(F)(F)F)[nH]c1C2c1ccccc1` (stereo not drawn) [Example 9], in that order: 8.3 mg/kg and above 9 mg/kg.
With `FC(F)(F)Sc1nc2c([nH]1)C(c1ccc(Cl)c(Cl)c1)c1ccccc1-2` (stereo not drawn) [Example 10], in assay [1] (setting [3]), the ED50 came to 1.3 mg/kg. Also, in assay [2] (rat), the “Paw volume reduction at indicated daily dose (Adjuvant Arthritic)” value amounted to 44%.
For the compound `CCSc1nc2c([nH]1)C(c1ccccc1)c1ccccc1-2` (stereo not drawn) [Example 11], the ED50 in assay [1] (setting [3]) and in assay [2] (setting [4]) was 14 mg/kg each time.
Consider `CCCCSc1nc2c([nH]1)C(c1ccccc1)c1ccccc1-2` (stereo not drawn) [Example 12], for which the figures for the ED50 in assay [1] (setting [3]) and in assay [2] (setting [4]) were 65 mg/kg and above 27 mg/kg, respectively.
For `COc1ccc(C2c3ccccc3-c3nc(SC(F)(F)F)[nH]c32)cc1` (stereo not drawn) [Example 13], in that order: 0.147 mg/kg and 3.2 mg/kg.
Turning to `COc1ccc(C2c3ccccc3-c3nc(S(=O)(=O)C(F)(F)F)[nH]c32)cc1` (stereo not drawn) [Example 14], the values for the median effective dose (ED50) in assay [1] (setting [3]) and in assay [2] (setting [4]) were 0.2 mg/kg and 0.5 mg/kg, respectively.
Take `Cc1ccc2c(c1)-c1nc(SC(F)(F)C(F)F)[nH]c1C2c1ccccc1` (stereo not drawn) [Example 15]: the ED50 in assay [1] (setting [3]) came to 5 mg/kg; in assay [2] (setting [4]) it was 3.6 mg/kg.
In the case of `Cc1ccc2c(c1)-c1nc(S(=O)(=O)C(F)(F)C(F)F)[nH]c1C2c1ccccc1` (stereo not drawn) [Example 16], in assay [1] (setting [3]), the ED50 is 0.064 mg/kg. For the same compound, in assay [2] (rat), the “Paw volume reduction at indicated daily dose (Adjuvant Arthritic)” value is given as 39%.
For `Fc1ccc(C2c3ccccc3-c3nc(SC(F)(F)F)[nH]c32)cc1` (stereo not drawn) [Example 17], the ED50 in assay [1] (setting [3]) is 0.14 mg/kg; in assay [2] (setting [4]), 2.4 mg/kg.
For `CC(C)Cc1ccc(C(C)C(=O)O)cc1` (stereo not drawn) [Ibuprofen, reference compound], the ED50 in assay [1] (setting [3]) turned out to be 10 mg/kg; in assay [2] (setting [4]), 100 mg/kg.
For `COc1ccc2c(c1)c(CC(=O)O)c(C)n2C(=O)c1ccc(Cl)cc1` [Indomethacin, reference compound], the ED50 was 0.35 mg/kg in assay [1] (Mus musculus, po) and 0.3 mg/kg in assay [2] (Rattus norvegicus, po).
For `CCCCC1C(=O)N(c2ccccc2)N(c2ccccc2)C1=O` [Phenylbutazone, phenylbutazone, reference compound], the results for the ED50 in assay [1] (setting [3]) and in assay [2] (setting [4]) were 80 mg/kg and 10 mg/kg, respectively.

One may read the ED50 as the dose that gives a 50% effect, or the effect in half of the subjects.
